Converted amounts (≈) assume the structure as drawn. Values belong to the molecule of their own block, whether it stands above or below them.
Experiments:
[1] = Half life in iv dosed Wistar Hannover rat administered as single dose measured up to 24 hrs; format: ADME, organism-based; settings: in vivo
[2] = Total plasma concentration in MK801 stimulated Sprague-Dawley rat hyperlocomotion model at 100 mg/kg, po after 2 hrs; format: ADME, organism-based
Plasma [3] = assay: Unbound plasma concentration in PCP stimulated Sprague-Dawley rat hyperlocomotion model at 10 mg/kg, po after 2 hrs; format: ADME, organism-based; settings: in vivo
[4] = Oral bioavailability in Wistar Hannover rat at 10 mg/kg administered as single dose measured up to 24 hrs; format: ADME, organism-based; settings: in vivo
Cerebrospinal fluid [5] = assay: Drug uptake in cerebro spinal fluid of MK801 stimulated Sprague-Dawley rat hyperlocomotion model at 30 mg/kg, po; format: ADME, organism-based; settings: in vivo, read-out: Drug uptake
Cerebrospinal fluid [6] = assay: Drug uptake in cerebro spinal fluid of MK801 stimulated Sprague-Dawley rat hyperlocomotion model at 10 mg/kg, po; format: ADME, organism-based; settings: in vivo, read-out: Drug uptake
Plasma [7] = assay: Unbound plasma concentration in MK801 stimulated Sprague-Dawley rat hyperlocomotion model at 100 mg/kg, po after 2 hrs; format: ADME, organism-based; settings: in vivo
Cerebrospinal fluid [8] = assay: Drug uptake in cerebro spinal fluid of PCP stimulated Sprague-Dawley rat hyperlocomotion model at 100 mg/kg, po; format: ADME, organism-based; settings: in vivo, read-out: Drug uptake
in vivo = settings: Wistar Hannover, rat, 10 mg/kg
[9] = Total plasma concentration in MK801 stimulated Sprague-Dawley rat hyperlocomotion model at 10 mg/kg, po after 2 hrs; format: ADME, organism-based
Cerebrospinal fluid [10] = assay: Drug uptake in cerebro spinal fluid of MK801 stimulated Sprague-Dawley rat hyperlocomotion model at 100 mg/kg, po; format: ADME, organism-based; settings: in vivo, read-out: Drug uptake
Plasma [11] = assay: Unbound plasma concentration in PCP stimulated Sprague-Dawley rat hyperlocomotion model at 30 mg/kg, po after 2 hrs; format: ADME, organism-based; settings: in vivo
Plasma [12] = assay: Unbound plasma concentration in PCP stimulated Sprague-Dawley rat hyperlocomotion model at 100 mg/kg, po after 2 hrs; format: ADME, organism-based; settings: in vivo
[13] = Total plasma concentration in PCP stimulated Sprague-Dawley rat hyperlocomotion model at 100 mg/kg, po after 2 hrs; format: ADME, organism-based
Plasma [14] = assay: Unbound plasma concentration in MK801 stimulated Sprague-Dawley rat hyperlocomotion model at 30 mg/kg, po after 2 hrs; format: ADME, organism-based; settings: in vivo
[15] = Total plasma concentration in PCP stimulated Sprague-Dawley rat hyperlocomotion model at 10 mg/kg, po after 2 hrs; format: ADME, organism-based
Cerebrospinal fluid [16] = assay: Drug uptake in cerebro spinal fluid of PCP stimulated Sprague-Dawley rat hyperlocomotion model at 30 mg/kg, po; format: ADME, organism-based; settings: in vivo, read-out: Drug uptake
MDR1a (P-glycoprotein) = assay: Apparent permeability across pig LLC-PK cells expressing human/rat MDR1a; format: ADME, cell-based, Sus scrofa; settings: LLC-PK1
[17] = Total clearance in iv dosed Wistar Hannover rat administered as single dose measured up to 24 hrs; format: ADME, organism-based; settings: in vivo
Rattus norvegicus = assay: Intrinsic clearance in iv dosed Wistar Hannover rat administered as single dose measured up to 24 hrs; format: ADME, organism-based; settings: in vivo
[18] = Total plasma concentration in MK801 stimulated Sprague-Dawley rat hyperlocomotion model at 30 mg/kg, po after 2 hrs; format: ADME, organism-based
Plasma [19] = assay: Unbound plasma concentration in MK801 stimulated Sprague-Dawley rat hyperlocomotion model at 10 mg/kg, po after 2 hrs; format: ADME, organism-based; settings: in vivo
physchem = settings: buffer, pH 7
Cerebrospinal fluid [20] = assay: Drug uptake in cerebro spinal fluid of PCP stimulated Sprague-Dawley rat hyperlocomotion model at 10 mg/kg, po; format: ADME, organism-based; settings: in vivo, read-out: Drug uptake
[21] = Total plasma concentration in PCP stimulated Sprague-Dawley rat hyperlocomotion model at 30 mg/kg, po after 2 hrs; format: ADME, organism-based

half-life [1]: 58.8 min
concentration at 2 h [2]: 22 µM
Cp(f) (Plasma [3]): 54 µM
bioavailability [4]: 47%
concentration (Cerebrospinal fluid [5]): 211 nM
concentration (Cerebrospinal fluid [6]): 21 nM
Cp(f) (Plasma [7]): 660 µM
concentration (Cerebrospinal fluid [8]): 906 nM
Cmax at 24 h (in vivo): 1500 nM
concentration at 2 h [9]: 1400 nM
concentration (Cerebrospinal fluid [10]): 711 nM
Cp(f) (Plasma [11]): 255 µM
Cp(f) (Plasma [12]): 750 µM
concentration at 2 h [13]: 25 µM
Cp(f) (Plasma [14]): 201 µM
concentration at 2 h [15]: 1800 nM
concentration (Cerebrospinal fluid [16]): 399 nM
Papp (MDR1a (P-glycoprotein)): 31 ×10⁻⁶ cm/s
clearance [17]: 42 mL/min/kg
CL (Rattus norvegicus): 2800 mL/min/kg
concentration at 2 h [18]: 6.7 µM
Cp(f) (Plasma [19]): 42 µM
solubility (physchem): 147 µM (≈ 54 µg/mL)
concentration (Cerebrospinal fluid [20]): 26 nM
concentration at 2 h [21]: 8.5 µM
Compound: Cc1ccc(C(C)(C)O)cc1-c1ccc2c(n1)n(C)c(=O)n2CC(C)(C)C

Compound: Cn1c(=O)n(CC(C)(C)C)c2ccc(-c3ccc(S(C)(=O)=O)cc3)nc21
solubility (physchem): 7 µM (≈ 2.61 µg/mL)

Source: ChEMBL document CHEMBL3763140, “Discovery of 5-aryl-1,3-dihydro-2H-imidazo[4,5-b]pyridin-2-ones as positive allosteric modulators of metabotropic glutamate subtype-2 (mGlu2) receptors with efficacy in a preclinical model of psychosis” (Bioorg Med Chem Lett, 2016)
